Patent US20040072892A1, “Cyanopyrrolidine derivatives” (priority 2000, published 2004)
Where a name gives a salt, the structure may show the parent alone.

Legend:
[1] = Concentration of test drug in blood by oral administration in rats (LC/MS/MS); format: in vivo; conditions: Wistar rats, oral 1 mg/kg; for concentration at 5 min / concentration at 10 min / concentration at 15 min / concentration at 30 min / concentration at 1 h / concentration at 2 h: male, rat, plasma, mean of 2 samples; for concentration at 5 min: 5 min. after administration; for concentration at 10 min: 10 min. after administration; for concentration at 15 min: 15 min. after administration; for concentration at 30 min: 30 min. after administration; for concentration at 1 h: 1 hour after administration; for concentration at 2 h: 2 hours after administration
Experimental: Experiment 2 [Concentration of Test Drug in Blood by Oral Administration in Rats]
Wistar rats, male (8 weeks old) were used after fasting from the day before the test.
At 5, 10, 15, 30 minutes, 1 and 2 hours after the administration, each 0.2 ml of blood was collected from the jugular vein and, after centrifugation, the resulting plasma was used as sample.
That is, 50 μl of the plasma was added to 200 μl of acetonitrile, stirred and, after centrifugation, the supernatant was injected to a liquid chromatography wherein CAPCEL PAK C18, UG120 5 μm (150 mm long, 2 mm diameter) was used as a column, a mixture of 10 mM aqueous ammonium acetate solution and 90% aqueous acetonitrile solution (1:9) was used as an eluent, Sciex API3000 LC/MS/MS System (Perkin Elmer Sciex) was used as a MS/MS condition, ESI was used as an ionization method, and cation, and SRM (precursor ion and daughter ion) was used for monitoring.

[2] = molecular target: dipeptidyl peptidase IV (DPP IV) (Homo sapiens, UniProt P27487); test: Dipeptidyl peptidase IV activity inhibition test (human plasma, Gly-Pro-4-methylcoumaryl-7-amide); format: biochemical; conditions: room temperature, 2 hours, pH 7.8
dipeptidyl peptidase IV (DPP IV), sequence (P27487 39-766 limits assumed): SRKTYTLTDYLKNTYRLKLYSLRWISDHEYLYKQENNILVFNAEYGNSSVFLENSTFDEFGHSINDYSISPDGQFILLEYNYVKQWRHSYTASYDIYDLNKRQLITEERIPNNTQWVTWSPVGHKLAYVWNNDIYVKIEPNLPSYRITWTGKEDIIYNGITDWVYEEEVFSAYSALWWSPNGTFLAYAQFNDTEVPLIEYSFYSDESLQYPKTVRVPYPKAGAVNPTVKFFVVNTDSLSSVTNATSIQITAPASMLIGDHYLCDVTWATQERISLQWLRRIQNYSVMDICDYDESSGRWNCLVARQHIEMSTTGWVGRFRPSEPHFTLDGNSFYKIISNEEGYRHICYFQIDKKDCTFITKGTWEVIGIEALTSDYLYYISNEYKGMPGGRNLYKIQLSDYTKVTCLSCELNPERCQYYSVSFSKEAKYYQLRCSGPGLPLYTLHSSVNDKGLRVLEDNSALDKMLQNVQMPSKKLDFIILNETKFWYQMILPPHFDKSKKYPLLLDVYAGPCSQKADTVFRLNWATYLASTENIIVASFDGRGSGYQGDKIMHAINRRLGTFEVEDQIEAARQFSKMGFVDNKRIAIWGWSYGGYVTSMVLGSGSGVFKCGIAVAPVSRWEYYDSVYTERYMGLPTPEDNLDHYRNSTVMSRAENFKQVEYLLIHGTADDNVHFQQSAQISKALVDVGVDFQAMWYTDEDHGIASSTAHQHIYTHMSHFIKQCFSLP
Experimental: Experiment 1 [Dipeptidyl Peptidase IV Activity Inhibition Test]
Plasma including dipeptidyl peptidase IV was prepared by centrifugation of blood collected from healthy human volunteers. […] The fluorescence intensity at which the reaction time of the vehicle addition was 0 minute was regarded as a blank value, and the specific fluorescence intensity was calculated by subtracting the blank value from the determined value. The inhibition rate (%) of the dipeptidyl peptidase IV activity was calculated from the resulting specific fluorescence intensity according to the following formula. The dimethyl sulfoxide solution containing the test compound at high concentration of 1000-fold was prepared and diluted with the above-mentioned buffer solution for use.
Inhibition rate (%)=A/B×100
(A=fluorescence intensity of vehicle addition fluorescence intensity of the test compound addition)
(B=fluorescence intensity of the vehicle addition)

Zucker fatty rats = test: Oral glucose tolerance test (OGTT) in Zucker fatty rats; format: in vivo
Experimental: Experiment 3 [Effect of Dipeptidyl Peptidase IV Inhibitors on Oral Glucose Tolerance Test (OGTT) in Zucker Fatty Rats]
An OGTT in Zucker fatty rats was carried out referring to the method described in Diabetologia, 42, 1324-1331 (1999). In the test, male Zucker fatty rats, 10 weeks old (Charles River Japan, Inc.) were used after fasting for 16 hours. […] Before the begining of the test, blood was collected from the intraorbital vein using a heparin-treated tube for blood collection (manufactured by Drummond Scientific Co.). The test compounds were each dissolved in water for injection under Japanese Pharmacopoeia (manufactured by Hikari Pharmaceutical Co.) and orally administered in an amount of 2 ml/kg of the body weight. The same amount of water for injection under Japanese Pharmacopoeia only was administered to control group. […]
Plasma glucose levels of the frozen samples (mg/dl) were determined using Glucose CII test Wako (manufactured by Wako Fine Chemical Industry Co.), and the area under the curve (min·mg/dl) was calculated from the plasma glucose levels which were determined from the blood collected for 60 minutes after the glucose administration. […]

concentration at 5 min [1] [ng/mL]	concentration at 10 min [1] [ng/mL]	concentration at 15 min [1] [ng/mL]	concentration at 30 min [1] [ng/mL]	concentration at 1 h [1] [ng/mL]	concentration at 2 h [1] [ng/mL]	IC50 [2] [nM]	SMILES	concentration in plasma compared with Compound A (in words) [1]	elevation of the plasma glucose level (in words) (Zucker fatty rats; OGTT, p<0.05)	area under the curve of plasma glucose levels, mean ± S.E. (Zucker fatty rats; oral, glucose 1 g/kg 30 minutes after compound, 60 minutes after glucose administration) [mg·min/dL]
122	146	113	28	6	2		CC[C@H](C)[C@H](N)C(=O)N1CCC[C@H]1C#N [Compound A, 1-[(2S,3S)-2-amino-3-methylpentanoyl]-2-(S)-cyanopyrrolidine trifluoroacetate, reference compound]			
						0.7	CC(C)[C@H](N)C(=O)N1C[C@@H](F)C[C@H]1C#N [Example 15, (2S,4S)-1-[(2S)-2-amino-3-methylbutanoyl]-2-cyano-4-fluoropyrrolidine Hydrochloride]			
						0.6	CC(C)(C)[C@H](N)C(=O)N1C[C@@H](F)C[C@H]1C#N [Example 17, (2S,4S)-1-[(2S)-2-amino-3,3-dimethylbutanoyl]-2-cyano-4-fluoropyrrolidine Hydrochloride]			
157	372	348	195	24	5	0.6	CC[C@H](C)[C@H](N)C(=O)N1C[C@@H](F)C[C@H]1C#N.Cl [Example 1, (2S,4S)-1-[(2S,3S)-2-amino-3-methylpentanoyl]-2-cyano-4-fluoropyrrolidine Hydrochloride]	higher concentration in plasma than Compound A	inhibited significantly the elevation of the plasma glucose level	13248 ± 619
